# Experimental data from US6936602B1, “Benzazepine derivatives, process for the preparation of the same and uses thereof” (Takeda Chemical Industries, Ltd., priority 1999, dated 2005).
# Key:
# human CCR5 = target: T1, human CCR5 (Homo sapiens, UniProt P51681); assay: Evaluation of test compounds based on CCR5 antagonistic activity: inhibition of [125I]-RANTES binding to CCR5/CHO cells; conditions: Test Compound 1 μM, 100 pM [125I]-RANTES, room temperature for 40 minutes; for inhibition at 1 µM: read-out: Inhibitory Rate (%)
# T1 construct: expressed in transfected cells
# T1 sequence (P51681 whole entry): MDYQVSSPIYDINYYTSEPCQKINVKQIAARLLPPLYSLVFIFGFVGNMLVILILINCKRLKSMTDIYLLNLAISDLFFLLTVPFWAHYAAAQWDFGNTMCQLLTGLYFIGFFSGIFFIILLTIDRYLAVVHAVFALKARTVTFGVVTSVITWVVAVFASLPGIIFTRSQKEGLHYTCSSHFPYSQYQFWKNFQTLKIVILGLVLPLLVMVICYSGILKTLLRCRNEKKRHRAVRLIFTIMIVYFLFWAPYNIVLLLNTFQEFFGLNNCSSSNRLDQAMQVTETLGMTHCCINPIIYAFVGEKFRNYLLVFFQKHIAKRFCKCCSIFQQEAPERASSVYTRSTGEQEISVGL
# Protocol: Cloning of CCR5 gene was carried out by a PCR method from human spleen cDNA. With using 0.5 ng of spleen cDNA (Toyobo, QUICK-Clone cDNA) as template, PCR was performed in DNA Thermal Cycler 480 (Perkin-Elmer) (reaction conditions: 30 cycles of 95° C. for 1 minute, 60° C. for 1 minute, and 75° C. for 5 minutes) by adding each 25 pmol of primers of a primer set, • SEQ ID NO.: 1 described in Test Example (1) of WO 99/32100 [length of sequence: 34; type of sequence: nucleic acid; strandedness: single; topology: straight; kind of sequence: other nucleic acid synthetic DNA, and • SEQ ID NO.: 2 described in Test Example (1) of WO 99/32100 [length of sequence: 34; type of sequence: nucleic acid; strandedness: single; topology: straight; kind of sequence: other nucleic acid synthetic DNA which were designed referring to nucleotide sequence of CCR5 gene reported by Samson et. al. (Biochemistry, 35(11), 3362-3367 (1996)) and by using TaKaRa EX Taq (Takara Shuzo). The resultant PCR product was subjected to agarose gel electrophoresis to collect about 1.0 kb DNA fragment, which was subjected to Original TA Cloning Kit (Funakoshi) to carry out cloning of CCR5 gene. (2) Preparation of Plasmid for Expression of Human CCR5
# The plasmid obtained in the above (1) was digested with restriction enzymes XbaI (Takara Shuzo) and BamHI (Takara Shuzo) and subjected to agarose gel electrophoresis to collect about 1.0 kb DNA fragment.
# The DNA fragment was mixed with plasmid pcDNA3.1 (Funakoshi) for expression in animal cells, said plasmid being digested with XbaI and BamHI, and they were ligated with DNA Ligation Kit Ver.2 (Takara Shuzo). The resulting plasmid was subjected to transformation of competent cell of E. coli JM109 (Takara Shuzo) to obtain plasmid pCKR5.
# CHO-K1 cells were grown in 750 ml of tissue culture flask (Becton Dickinson) using Ham's F12 medium (Nihon Pharmaceutical) containing 10% fetal calf serum (Life Tech Oriental) and taken off with 0.5 g/L trypsin-0.2 g/L EDTA (Life Tech Oriental). The cells were washed with PBS (Life Tech Oriental), centrifuged (1000 rpm, 5 minutes), and suspended in PBS. With using Gene Pulser (Bio-Rad Laboratories), DNA was introduced into the cells under the conditions shown below. That is, to the cuvette of 0.4 cm gap were added 8×10^6 cells and 10 μg of plasmid pCKR5 for expression of human CCR5, and electroporation was carried out under 0.25 kV of voltage and 960 μF of capacitance. The cells were transferred into Ham's F12 medium containing 10% fetal calf serum, and cultivated for 24 hours. The cells were again taken off and centrifuged, and suspended in Ham's F12 medium containing 10% fetal calf serum and 500 μg/ml of geneticin (Life Tech Oriental). The suspension was diluted to give 10^4 cells/ml of the suspension, which was inoculated on a 96 well plate (Becton Dickinson) to give geneticin resistant cells.
# The resulting geneticin resistant cells were cultivated in 96 well plate (Becton Dickinson), and cells expressing CCR5 were selected from the geneticin resistant cells. That is, in assay buffer (Ham's F12 medium containing 0.5% BSA and 20 mM HEPES (Wako Pure Chemical, pH7.2)) to which was added 200 pM of [^125I]-RANTES (Amersham) as a ligand, a binding reaction was carried out at room temperature for 46 minutes, and the buffer was washed with cooled PBS. To the buffer was added 50 μl/well of 1M NaOH, and the mixture was stirred. Radioactivity was determined with a y-counter to select CCR5/CHO cells which specifically bind to the ligand.
# The CCR5/CHO cells were inoculated on 96 well microplate (5×10^4 cells/well) and cultivated for 24 hours. The medium was removed by means of suction, and to each well was added an assay buffer containing Test Compound (1 μM) and then 100 pM of [^125I]-RANTES (Amersham) as a ligand. A binding assay was carried out at room temperature for 40 minutes, and an assay buffer was removed by means of suction. […]
SMILES,inhibition at 1 µM (human CCR5) [%],melting point [°C],other results
"CCCCOCCOc1ccc(-c2ccc3c(c2)C=C(C(=O)Nc2ccc(CN(C)C4CCOCC4)cc2)CCN3Cc2nnn(CC)n2)cc1 [Compound 112, 7-[4-(2-butoxyethoxy)phenyl]-1-(2-ethyltetrazol-5-ylmethyl)-N-[4-[N-methyl-N-(tetrahydropyran-4-yl)aminomethyl]phenyl]-2,3-dihydro-1-benzazepine-4-carboxamide]",100,,
"CCCCOCCOc1ccc(-c2ccc3c(c2)C=C(C(=O)Nc2ccc(CN(C)C4CCOCC4)cc2)CCN3Cc2c(C)noc2C)cc1 [Compound 71, 7-(4-butoxyethoxyphenyl)-1-[(3,5-dimethylisoxazol-4-yl)methyl]-N-[4-[[N-methyl-N-(tetrahydropyran-4-yl)amino]methyl]phenyl]-2,3-dihydro-1-benzazepine-4-carboxamide]",100,,
"CCCOCCOc1ccc(-c2ccc3c(c2)C=C(C(=O)Nc2ccc(CN(C)C4CCOCC4)cc2)CCN3CC(C)C)cc1 [Compound 84, 1-isobutyl-N-[4-[N-methyl-N-(tetrahydropyran-4-yl)aminomethyl]phenyl]-7-[4-(2-propoxyethoxy)phenyl]-2,3-dihydro-1-benzazepine-4-carboxamide]",97,,
"CCCCOCCOc1ccc(-c2ccc3c(c2)C=C(C(=O)Nc2ccc(CN(C)C4CCOCC4)cc2)CCN3c2ccccc2)cc1 [Compound 39, 7-[4-(2-butoxyethoxy)phenyl]-1-phenyl-N-[4-[[N-methyl-N-(tetrahydro-2H-pyran-4-yl)amino]methyl]phenyl]-2,3-dihydro-1H-1-benzazepine-4-carboxamide]",98,,
"CCCCOCCOc1ccc(-c2ccc3c(c2)C=C(C(=O)Nc2ccc(CN(C)C4CCOCC4)cc2)CCN3Cc2cnn(C)c2)cc1 [Compound 69, 7-(4-butoxyethoxyphenyl)-1-[(1-methylpyrazol-4-yl)methyl]-N-[4-[[N-methyl-N-(tetrahydropyran-4-yl)amino]methyl]phenyl]-2,3-dihydro-1-benzazepine-4-carboxamide]",100,,
"CCCCOCCOc1ccc(-c2ccc3c(c2)C=C(C(=O)Nc2ccc(CN(C)C4CCCOC4)cc2)CCN3Cc2cnn(CC)c2)cc1 (centres unmarked) [Compound 79, 7-(4-butoxyethoxyphenyl)-1-[(1-ethylpyrazol-4-yl)methyl]-N-[4-[[N-methyl-N-(tetrahydropyran-5-yl)amino]methyl]phenyl]-2,3-dihydro-1-benzazepine-4-carboxamide]",100,,
"CCCCOCCOc1ccc(-c2ccc3c(c2)C=C(C(=O)Nc2ccc(CN(C)C4CCOCC4)cc2)CCN3CC)cc1 [Compound 19, 7-[4-(2-butoxyethoxy)phenyl]-1-ethyl-N-[4-[[N-methyl-N-(tetrahydro-2H-pyran-4-yl)amino]methyl]phenyl]-2,3-dihydro-1-H-1-benzazepine-4-carboxamide]",,,Inhibitory Rate (%) (human CCR5): 100%
CCCCOCCOc1ccc(-c2ccc3c(c2)C=C(C(=O)Nc2ccc(CN(C)C4CCOCC4)cc2)CCN3CC(C)C)cc1 [Compound 85],,,Inhibitory Rate (%) (human CCR5): 100%
"CCCCOCCOc1ccc(-c2ccc3c(c2)C=C(C(=O)Nc2ccc(CN(C)C4CCOCC4)cc2)CCN3Cc2nnn(C)n2)cc1 [Compound 102, 7-[4-(2-butoxyethoxy)phenyl]-N-[4-[N-methyl-N-(tetrahydropyran-4-yl)aminomethyl]phenyl]-1-(2-methyltetrazol-5-ylmethyl)-2,3-dihydro-1-benzazepine-4-carboxamide]",100,,
CCCCOCCOc1ccc(-c2ccc3c(c2)C=C(C(=O)Nc2ccc(CN(C)C4CCOCC4)cc2)CCN3Cc2cncs2)cc1 [Compound 98],,,Inhibitory Rate (%) (human CCR5): 100%
"CCOCCOc1ccc(-c2ccc3c(c2)C=C(C(=O)Nc2ccc(CN(C)C4CCOCC4)cc2)CCN3C=O)cc1F [Compound 20, 7-[4-(2-ethoxy)ethoxy-3-fluorophenyl]-1-formyl-N-[4-[[N-methyl-N-(tetrahydro-2H-pyran-4-yl)amino]methyl]phenyl]-2,3-dihydro-1H-1-benzazepine-4-carboxamide]",94,,
"CCCCOCCOc1ccc(-c2ccc3c(c2)C=C(C(=O)Nc2ccc(CN(C)C4CCOCC4)cc2)CCN3Cc2nccs2)cc1 [Compound 68, 7-(4-butoxyethoxyphenyl)-N-[4-[[N-methyl-N-(tetrahydropyran-4-yl)amino]methyl]phenyl]-1-(thiazol-2-yl)methyl-2,3-dihydro-1-benzazepine-4-carboxamide]",95,,
"CCCCOCCOc1ccc(-c2ccc3c(c2)C=C(C(=O)Nc2ccc(CN(C)C4CCOCC4)cc2)CCN3)cc1 [Compound 28, 7-[4-(2-butoxyethoxy)phenyl]-N-[4-[[N-methyl-N-(tetrahydro-2H-pyran-4-yl)amino]methyl]phenyl]-2,3-dihydro-1H-1-benzazepine-4-carboxamide]",,119 to 123,
"CCCOCCOc1ccc(-c2ccc3c(c2)C=C(C(=O)Nc2ccc(CN(C)C4CCOCC4)cc2)CCN3Cc2ccoc2)cc1 [Compound 61, 1-(3-furylmethyl)-N-[4-[[N-methyl-N-(tetrahydropyran-4-yl)amino]methyl]phenyl]-7-(4-propoxyethoxyphenyl)-2,3-dihydro-1-benzazepine-4-carboxamide]",,115 to 116,
"CCOCCN(C)c1ccc(-c2ccc3c(c2)C=C(C(=O)Nc2ccc(CN(C)C4CCOCC4)cc2)CCN3C=O)cc1 [Compound 4, 7-[4-[N-(2-ethoxyethyl)-N-methylamino]phenyl]-1-formyl-N-[4-[[N-methyl-N-(tetrahydro-2H-pyran-4-yl)amino]methyl]phenyl]-2,3-dihydro-1H-1-benzazepine-4-carboxamide]",,157 to 158,
"CCCCOCCOc1ccc(-c2ccc3c(c2)C=C(C(=O)Nc2ccc(CN(C)C4CCOCC4)cc2)CCN3Cc2ccccc2OCC)cc1 [Compound 63, 7-(4-butoxyethoxyphenyl)-1-(2-ethoxybenzyl)-N-[4-[[N-methyl-N-(tetrahydropyran-4-yl)amino]methyl]phenyl]-2,3-dihydro-1-benzazepine-4-carboxamide]",,104.5 to 105.5,
"CCOCCOc1ccc(-c2ccc3c(c2)C=C(C(=O)Nc2ccc(CN(C)C4CCOCC4)cc2)CCN3C)cc1 [Compound 9, 7-[4-(2-ethoxyethoxy)phenyl]-1-methyl-N-[4-[[N-methyl-N-(tetrahydro-2H-pyran-4-yl)amino]methyl]phenyl]-2,3-dihydro-1H-1-benzazepine-4-carboxamide]",,122 to 125,
"CCCCOCCOc1ccc(-c2ccc3c(c2)C=C(C(=O)Nc2ccc(CN(C)C4CCOCC4)cc2)CCN3CC2CCCCC2)cc1 [Compound 34, 7-[4-(2-butoxyethoxy)phenyl]-1-cyclohexylmethyl-N-[4-[[N-methyl-N-(tetrahydro-2H-pyran-4-yl)amino]methyl]phenyl]-2,3-dihydro-1H-1-benzazepine-4-carboxamide]",,115 to 117,
CCCOCCOc1ccc(-c2ccc3c(c2)C=C(C(=O)Nc2ccc(CN(C)C4CCOCC4)cc2)CCN3c2ccccc2)cc1.Cl,,223 to 224,
"CCOCCN(CC)c1ccc(-c2ccc3c(c2)C=C(C(=O)Nc2ccc(CN(C)C4CCOCC4)cc2)CCN3C=O)cc1 [Compound 5, 7-[4-[N-(2-ethoxyethyl)-N-ethylamino]phenyl]-1-formyl-N-[4-[[N-methyl-N-(tetrahydro-2H-pyran-4-yl)amino]methyl]phenyl]-2,3-dihydro-1H-1-benzazepine-4-carboxamide]",,162 to 164,
